By IC50 is commonly meant the point on the concentration scale where inhibition reaches its midpoint.

Tested on in one assay: not listed separately
Description: Antiproliferative activity against Palbociclib-resistance human MCF7 cells assessed as cell growth inhibition. It counts as functional, cell-based, Palbociclib-resistant MCF7 cell.
Conditions: not given
Regarding `CC(=O)c1c(C)c2cnc(Nc3ccc(N4CCNCC4)cn3)nc2n(C2CCCC2)c1=O` [PALBOCICLIB], the 50% inhibitory concentration (IC50) is 13800 nM.

The next assay deals with MCF7. Description: Antiproliferative activity against wild type human MCF7 cells assessed as cell growth inhibition. It counts as functional, cell-based.
Conditions: not given
On to `CC(=O)c1c(C)c2cnc(Nc3ccc(N4CCNCC4)cn3)nc2n(C2CCCC2)c1=O` [PALBOCICLIB], for which the IC50 stood at 80 nM.

A further assay deals with OVCAR-3. Description: Induction of apoptosis in human OVCAR-3 cells assessed as viable cells at 2 uM incubated for 24 hrs by Annexin V-FITC/PI staining based flow cytometry analysis (reference value: 95.2%). Format: functional. The note with it: read-out: Activity.
Take `FC(F)Oc1cc(Nc2cnc3cnn(CC4CCOCC4)c3n2)n[nH]1` [CERTOCICLIB]: the viability at 2 µM came out at 79.3%.

The subject of a further assay is OVCAR-3. Description: Induction of apoptosis in human OVCAR-3 cells assessed as early apoptotic cells at 2 uM incubated for 24 hrs by Annexin V-FITC/PI staining based flow cytometry analysis (reference value: 1.25%). It counts as functional.
Conditions: not given
(Flow cytometry measures light scatter and fluorescence of single cells or particles in a stream.)
`FC(F)Oc1cc(Nc2cnc3cnn(CC4CCOCC4)c3n2)n[nH]1` [CERTOCICLIB]: the Activity was found to be 4.47%.

The test system of a further assay is OVCAR-3. The experiment in a line: Induction of apoptosis in human OVCAR-3 cells assessed as late apoptotic cells at 2 uM incubated for 24 hrs by Annexin V-FITC/PI staining based flow cytometry analysis (reference value: 2.67%).
Conditions: not given
Format: functional.
`FC(F)Oc1cc(Nc2cnc3cnn(CC4CCOCC4)c3n2)n[nH]1` [CERTOCICLIB]: the Activity is on record as 12.5%.

The next assay concerns OVCAR-3. Description: Induction of apoptosis in human OVCAR-3 cells assessed as necrotic cells at 2 uM incubated for 24 hrs by Annexin V-FITC/PI staining based flow cytometry analysis (reference value: 0.87%). It counts as functional.
Conditions: not given
In the case of `FC(F)Oc1cc(Nc2cnc3cnn(CC4CCOCC4)c3n2)n[nH]1` [CERTOCICLIB], the Activity stood at 3.77%.

Another assay has as its system OVCAR-3. Description: Induction of cell cycle arrest in human OVCAR-3 cells assessed as accumulation of cells at G2 phase at 2 uM incubated for 24 hrs by flow cytometry analysis (reference value: 21.77%).
Conditions: not given
Format: functional.
Regarding `FC(F)Oc1cc(Nc2cnc3cnn(CC4CCOCC4)c3n2)n[nH]1` [CERTOCICLIB], the Activity was determined as 2.64%.

Tested on in another assay: not listed separately
Description: Antiproliferative activity against CCNE1-amplified human OVCAR-3 cells assessed as cell growth inhibition incubated for 3 days by CCK8 assay. It counts as functional, cell-based. Particulars: OVCAR-3, 72 h. In general terms: Tetrazolium dyes change colour on reduction, which living cells bring about.
Consider `FC(F)Oc1cc(Nc2cnc3cnn(CC4CCOCC4)c3n2)n[nH]1` [CERTOCICLIB], for which the IC50 was found to be 2310 nM.

The subject of another assay is OVCAR-3. The experiment in a line: Induction of cell cycle arrest in human OVCAR-3 cells assessed as accumulation of cells at G1 phase at 2 uM incubated for 24 hrs by flow cytometry analysis (reference value: 67.73%).
Conditions: not given
Format: functional.
On to `FC(F)Oc1cc(Nc2cnc3cnn(CC4CCOCC4)c3n2)n[nH]1` [CERTOCICLIB], for which the Activity worked out at 95.66%.

A further assay deals with Cyclin-dependent kinase 2/cyclin E1 (Homo sapiens, UniProt P24941). Description: Inhibition of CDK2/Cyclin E1 (unknown origin) pre-incubated for 10 mins followed by ATP/substrate addition and measured after 60 mins by ADP-Glo assay. Format: protein-complex assay.
Conditions: not given
A general note: ADP-Glo turns the ADP formed in a reaction into a luminescent signal.
Regarding `CC(C)n1cc(-c2nc(NC3CCNCC3)ncc2F)ccc1=O`, the IC50 is above 1000 nM. Still for that read-out and setting: the value for `CC(C)Oc1ccc(-c2nc(NC3CCN(S(C)(=O)=O)CC3)ncc2F)cn1` was 93 nM. On the same count and under the same terms, the value for `CC(C)Oc1ncc(-c2nc(NC3CCN(S(C)(=O)=O)CC3)ncc2F)cc1F` was 73 nM. Compound `COCCS(=O)(=O)N1CCC(Nc2ncc(F)c(-c3cc(F)c(=O)n(C(C)C)c3)n2)CC1` yielded an IC50 of 7 nM.

On to `CCCCn1cc(-c2nc(NC3CCN(S(C)(=O)=O)CC3)ncc2F)cc(F)c1=O`, for which the midpoint of inhibition, the IC50, lay at 13 nM. Take `CCCS(=O)(=O)N1CCC(Nc2ncc(F)c(-c3ccc(=O)n(C(C)C)c3)n2)CC1`: the IC50 came to 7 nM.

With `CC(C)n1cc(-c2nc(NC3CCN(C(=O)OC(C)(C)C)CC3)ncc2F)ccc1=O`, the IC50 was 139 nM.

Turning to `CCC(C)n1cc(-c2nc(NC3CCN(S(=O)(=O)CC)CC3)ncc2F)cc(F)c1=O` (stereo not drawn), the IC50 was determined as 7 nM. On the same count and under the same terms, next, `CC(C)n1cc(-c2nc(NC3CCN(S(C)(=O)=O)CC3)ncc2F)ccc1=O`: 7 nM; `CC(C)Cn1cc(-c2nc(NC3CCN(S(C)(=O)=O)CC3)ncc2F)cc(F)c1=O`: 12 nM. Still for that read-out and setting: the value for `CC(C)n1cc(-c2nc(NC3CCN(S(C)(=O)=O)CC3)ncc2F)cc(F)c1=O` was 4 nM; that for `CCCS(=O)(=O)N1CCC(Nc2ncc(F)c(-c3cc(F)c(=O)n(C(C)C)c3)n2)CC1` was 5 nM; that for `COCCS(=O)(=O)N1CCC(Nc2ncc(F)c(-c3cnc(OC(C)C)c(F)c3)n2)CC1` was 124 nM.

In turn, `CC(=O)N1CCC(Nc2ncc(F)c(-c3ccc(=O)n(C(C)C)c3)n2)CC1` yielded an IC50 of 63 nM. The compound `Cc1cc(-c2nc(NC3CCN(S(C)(=O)=O)CC3)ncc2F)cnc1OC(C)C` returned an IC50 of 166 nM. The same measure, in the same setting: next, `CCCS(=O)(=O)N1CCC(Nc2ncc(F)c(-c3cnc(OC(C)C)c(F)c3)n2)CC1`: 130 nM; `CC(C)Oc1ncc(-c2ccnc(NC3CCN(S(C)(=O)=O)CC3)n2)cc1F`: 810 nM; `Cc1nc(OC(C)C)ccc1-c1nc(NC2CCN(S(C)(=O)=O)CC2)ncc1F`: 297 nM.

Take `Cn1cc(-c2nc(NC3CCN(S(C)(=O)=O)CC3)ncc2F)cc(F)c1=O`: the IC50 was 70 nM. For the compound `CC(C)n1cc(-c2nc(NC3CCN(S(=O)(=O)C4CC4)CC3)ncc2F)cc(F)c1=O`, the IC50 was found to be 5 nM. Regarding `Cc1cc(-c2nc(NC3CCN(S(C)(=O)=O)CC3)ncc2F)cn(C(C)C)c1=O`, the IC50 came out at 222 nM. Same read-out and setting: next, `CCC(C)n1cc(-c2nc(NC3CCN(S(=O)(=O)CCOC)CC3)ncc2F)cc(F)c1=O` (stereo not drawn): 5 nM. For `COc1cnc(NC2CCN(S(C)(=O)=O)CC2)nc1-c1cnc(OC(C)C)c(F)c1`, inhibition was half-maximal at 341 nM (IC50). For `CCS(=O)(=O)N1CCC(Nc2ncc(F)c(-c3cc(F)c(=O)n(C(C)C)c3)n2)CC1`, the IC50 stood at 6 nM. Same read-out and setting: the value for `CCC(C)n1cc(-c2nc(NC3CCN(S(C)(=O)=O)CC3)ncc2F)cc(F)c1=O` (stereo not drawn) was 3 nM. Still for that read-out and setting: next, `CC(C)n1cc(-c2nc(NC3CCN(S(=O)(=O)C(F)(F)F)CC3)ncc2F)ccc1=O`: 42 nM; `CCn1cc(-c2nc(NC3CCN(S(C)(=O)=O)CC3)ncc2F)cc(F)c1=O`: 23 nM; `CCS(=O)(=O)N1CCC(Nc2ncc(F)c(-c3cnc(OC(C)C)c(F)c3)n2)CC1`: 113 nM. On the same count and under the same terms, next, `CC(C)n1cc(-c2nc(NC3CCN(S(=O)(=O)C(C)C)CC3)ncc2F)ccc1=O`: 16 nM. The compound `CC(C)=CCn1cc(-c2nc(NC3CCN(S(C)(=O)=O)CC3)ncc2F)cc(F)c1=O` had an IC50 of 15 nM. Still for that read-out and setting: the value for `CC(C)n1cc(-c2nc(NC3CCN(S(=O)(=O)C(C)C)CC3)ncc2F)cc(F)c1=O` was 8 nM; that for `CC(C)Oc1ncc(-c2nc(NC3CCN(S(C)(=O)=O)CC3)ncc2F)cc1C(=O)O` was 656 nM; that for `COCCS(=O)(=O)N1CCC(Nc2ncc(F)c(-c3ccc(=O)n(C(C)C)c3)n2)CC1` was 10 nM.

On to `CC(C)Oc1ncc(-c2nc(NC3CCN(S(=O)(=O)C(C)C)CC3)ncc2F)cc1F`, for which half-maximal inhibition (IC50) required 216 nM.

For the origin of these results see ChEMBL document CHEMBL6177950, “Discovery of potent and selective CDK2 inhibitors with high safety and favorable bioavailability for the treatment of cancer” (Eur J Med Chem, 2025).
